Reference: the kinase profiling compilation of Christmann-Franck et al. (2016)

How the values were obtained:
Assay in all cases: KINOMEscan competition binding
Details in all cases: compound 10.0 µM
ACVR1 (human) = ACVR1 (human) (UniProt Q04771)
STK4 (human) = STK4 (human) (UniProt Q13043)
CDKL2 (human) = CDKL2 (human) (UniProt Q92772)
HCK (human) = HCK (human) (UniProt P08631)
PAK3 (human) = PAK3 (human) (UniProt O75914)
MAP4K2 (human) = MAP4K2 (human) (UniProt Q12851)
[1] = biological target: TYK2 JH1 catalytic (human) (UniProt P29597)
Sequence of TYK2 JH1 catalytic (human) (P29597 whole entry, looked up): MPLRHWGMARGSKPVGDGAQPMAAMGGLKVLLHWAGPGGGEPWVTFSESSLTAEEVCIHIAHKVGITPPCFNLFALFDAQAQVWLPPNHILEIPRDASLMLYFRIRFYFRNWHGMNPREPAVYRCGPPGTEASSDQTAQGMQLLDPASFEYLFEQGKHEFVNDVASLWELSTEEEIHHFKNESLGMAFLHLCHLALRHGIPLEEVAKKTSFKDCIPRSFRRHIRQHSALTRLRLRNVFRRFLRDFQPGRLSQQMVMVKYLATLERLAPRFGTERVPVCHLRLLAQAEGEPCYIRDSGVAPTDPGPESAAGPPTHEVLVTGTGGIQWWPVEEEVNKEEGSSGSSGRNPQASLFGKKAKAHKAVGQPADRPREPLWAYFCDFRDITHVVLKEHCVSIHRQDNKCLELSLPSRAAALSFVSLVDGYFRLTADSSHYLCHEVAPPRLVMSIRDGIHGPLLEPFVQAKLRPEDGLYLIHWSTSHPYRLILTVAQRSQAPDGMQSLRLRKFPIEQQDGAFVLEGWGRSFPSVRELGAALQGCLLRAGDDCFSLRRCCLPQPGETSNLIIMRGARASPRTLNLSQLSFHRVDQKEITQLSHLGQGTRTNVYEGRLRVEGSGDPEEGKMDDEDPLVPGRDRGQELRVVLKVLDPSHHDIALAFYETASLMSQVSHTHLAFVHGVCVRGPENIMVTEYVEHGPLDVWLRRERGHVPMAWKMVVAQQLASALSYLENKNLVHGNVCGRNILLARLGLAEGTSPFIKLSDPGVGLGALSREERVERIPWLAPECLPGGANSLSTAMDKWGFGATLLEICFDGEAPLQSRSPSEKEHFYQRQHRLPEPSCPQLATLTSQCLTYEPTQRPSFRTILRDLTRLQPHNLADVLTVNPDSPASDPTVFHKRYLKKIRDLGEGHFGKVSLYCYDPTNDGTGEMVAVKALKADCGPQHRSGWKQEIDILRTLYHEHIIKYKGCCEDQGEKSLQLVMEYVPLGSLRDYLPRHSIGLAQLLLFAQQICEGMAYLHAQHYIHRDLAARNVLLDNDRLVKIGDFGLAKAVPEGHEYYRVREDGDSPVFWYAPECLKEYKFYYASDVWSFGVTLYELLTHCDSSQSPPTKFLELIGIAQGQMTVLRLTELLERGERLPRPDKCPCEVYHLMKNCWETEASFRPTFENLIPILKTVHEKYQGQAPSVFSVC

PRKACB (human) = PRKACB (human) (UniProt P22694)
STK33 (human) = STK33 (human) (UniProt Q9BYT3)
STK24 (human) = STK24 (human) (UniProt Q9Y6E0)
Sequence of STK24 (human) (Q9Y6E0 whole entry, looked up): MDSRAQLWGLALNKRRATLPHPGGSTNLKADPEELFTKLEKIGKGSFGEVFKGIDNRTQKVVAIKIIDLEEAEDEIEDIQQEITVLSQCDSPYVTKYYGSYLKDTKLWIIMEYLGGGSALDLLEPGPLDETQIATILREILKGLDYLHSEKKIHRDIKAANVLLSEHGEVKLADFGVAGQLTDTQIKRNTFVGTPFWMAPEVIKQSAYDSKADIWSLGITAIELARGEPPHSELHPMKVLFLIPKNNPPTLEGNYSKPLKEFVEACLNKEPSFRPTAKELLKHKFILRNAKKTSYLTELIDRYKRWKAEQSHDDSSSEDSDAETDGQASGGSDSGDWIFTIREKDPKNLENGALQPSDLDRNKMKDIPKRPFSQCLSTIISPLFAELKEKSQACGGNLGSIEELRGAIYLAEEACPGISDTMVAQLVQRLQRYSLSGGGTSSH

[2] = biological target: JAK1 JH2 pseudokinase (human) (UniProt P23458)
LTK (human) = LTK (human) (UniProt P29376)
ACVR2B (human) = ACVR2B (human) (UniProt Q13705)
ERBB4 (human) = ERBB4 (human) (UniProt Q15303)
MAPK13 (human) = MAPK13 (human) (UniProt O15264)
PAK6 (human) = PAK6 (human) (UniProt Q9NQU5)
RIPK1 (human) = RIPK1 (human) (UniProt Q13546)
MAP3K10 (human) = MAP3K10 (human) (UniProt Q02779)
Sequence of MAP3K10 (human) (Q02779 whole entry, looked up): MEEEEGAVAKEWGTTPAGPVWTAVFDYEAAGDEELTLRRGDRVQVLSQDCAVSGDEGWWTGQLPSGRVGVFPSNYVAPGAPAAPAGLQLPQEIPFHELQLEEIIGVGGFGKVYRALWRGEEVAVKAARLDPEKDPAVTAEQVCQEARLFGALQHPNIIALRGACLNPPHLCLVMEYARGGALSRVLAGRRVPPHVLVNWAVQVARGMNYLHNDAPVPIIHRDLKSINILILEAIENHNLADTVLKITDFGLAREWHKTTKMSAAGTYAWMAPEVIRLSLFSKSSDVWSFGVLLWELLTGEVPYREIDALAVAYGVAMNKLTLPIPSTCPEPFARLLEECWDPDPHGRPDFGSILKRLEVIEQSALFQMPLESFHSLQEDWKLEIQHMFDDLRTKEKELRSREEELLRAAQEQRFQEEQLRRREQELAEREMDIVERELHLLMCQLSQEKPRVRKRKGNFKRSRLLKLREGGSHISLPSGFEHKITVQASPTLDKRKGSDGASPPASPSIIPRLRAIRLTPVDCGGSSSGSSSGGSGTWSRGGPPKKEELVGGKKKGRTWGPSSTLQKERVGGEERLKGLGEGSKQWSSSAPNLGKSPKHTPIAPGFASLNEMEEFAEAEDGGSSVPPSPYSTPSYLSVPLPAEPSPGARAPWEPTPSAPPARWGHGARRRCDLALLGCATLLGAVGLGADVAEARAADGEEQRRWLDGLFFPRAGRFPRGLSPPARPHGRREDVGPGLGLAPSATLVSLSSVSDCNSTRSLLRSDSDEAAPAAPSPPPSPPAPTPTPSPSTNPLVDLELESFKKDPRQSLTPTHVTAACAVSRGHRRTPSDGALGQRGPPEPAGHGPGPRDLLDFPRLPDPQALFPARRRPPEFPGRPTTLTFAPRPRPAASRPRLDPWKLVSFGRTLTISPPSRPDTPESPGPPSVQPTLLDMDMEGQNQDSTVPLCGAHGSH

RPS6KA1 KD1 (human) = RPS6KA1 KD1 (human) (UniProt Q15418)
MAPK9 (human) = MAPK9 (human) (UniProt P45984)
CSNK1D (human) = CSNK1D (human) (UniProt P48730)
CDKL3 (human) = CDKL3 (human) (UniProt Q8IVW4)
CHEK2 (human) = CHEK2 (human) (UniProt O96017)
ZAP70 (human) = ZAP70 (human) (UniProt P43403)
Sequence of ZAP70 (human) (P43403 whole entry, looked up): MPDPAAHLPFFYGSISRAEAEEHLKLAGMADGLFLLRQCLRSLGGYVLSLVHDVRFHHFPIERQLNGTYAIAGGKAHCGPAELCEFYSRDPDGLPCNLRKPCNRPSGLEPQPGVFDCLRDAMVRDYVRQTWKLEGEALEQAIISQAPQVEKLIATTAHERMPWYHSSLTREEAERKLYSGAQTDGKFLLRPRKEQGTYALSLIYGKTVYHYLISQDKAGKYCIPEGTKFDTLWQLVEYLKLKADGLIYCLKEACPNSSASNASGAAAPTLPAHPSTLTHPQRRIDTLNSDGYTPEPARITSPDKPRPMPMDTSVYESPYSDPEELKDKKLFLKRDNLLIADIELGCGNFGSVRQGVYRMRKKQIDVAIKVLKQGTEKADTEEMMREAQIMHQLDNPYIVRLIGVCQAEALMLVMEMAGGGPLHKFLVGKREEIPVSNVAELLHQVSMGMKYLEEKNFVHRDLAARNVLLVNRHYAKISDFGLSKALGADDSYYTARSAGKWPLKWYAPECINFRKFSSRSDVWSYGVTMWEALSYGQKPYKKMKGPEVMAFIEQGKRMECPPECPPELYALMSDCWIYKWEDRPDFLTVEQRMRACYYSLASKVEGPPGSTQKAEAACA

MARK3 (human) = MARK3 (human) (UniProt P27448)
MAP4K4 (human) = MAP4K4 (human) (UniProt O95819)
IRAK3 (human) = IRAK3 (human) (UniProt Q9Y616)
Sequence of IRAK3 (human) (Q9Y616 whole entry, looked up): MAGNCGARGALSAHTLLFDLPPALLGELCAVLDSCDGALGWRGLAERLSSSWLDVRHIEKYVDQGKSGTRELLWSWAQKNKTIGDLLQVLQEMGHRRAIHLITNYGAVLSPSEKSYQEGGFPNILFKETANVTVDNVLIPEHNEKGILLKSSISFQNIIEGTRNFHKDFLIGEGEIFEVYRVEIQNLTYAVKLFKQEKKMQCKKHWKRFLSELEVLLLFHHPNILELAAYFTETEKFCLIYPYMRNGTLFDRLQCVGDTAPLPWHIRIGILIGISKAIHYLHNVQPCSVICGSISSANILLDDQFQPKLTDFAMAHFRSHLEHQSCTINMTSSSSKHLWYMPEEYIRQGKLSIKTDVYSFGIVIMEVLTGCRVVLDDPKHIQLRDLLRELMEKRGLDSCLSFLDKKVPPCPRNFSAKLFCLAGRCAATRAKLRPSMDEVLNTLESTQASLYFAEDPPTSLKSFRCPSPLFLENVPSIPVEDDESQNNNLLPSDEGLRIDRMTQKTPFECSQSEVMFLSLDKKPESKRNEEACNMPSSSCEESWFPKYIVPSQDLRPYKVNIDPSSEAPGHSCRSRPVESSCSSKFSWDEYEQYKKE

EPHB2 (human) = EPHB2 (human) (UniProt P29323)
IKBKE (human) = IKBKE (human) (UniProt Q14164)
Sequence of IKBKE (human) (Q14164 whole entry, looked up): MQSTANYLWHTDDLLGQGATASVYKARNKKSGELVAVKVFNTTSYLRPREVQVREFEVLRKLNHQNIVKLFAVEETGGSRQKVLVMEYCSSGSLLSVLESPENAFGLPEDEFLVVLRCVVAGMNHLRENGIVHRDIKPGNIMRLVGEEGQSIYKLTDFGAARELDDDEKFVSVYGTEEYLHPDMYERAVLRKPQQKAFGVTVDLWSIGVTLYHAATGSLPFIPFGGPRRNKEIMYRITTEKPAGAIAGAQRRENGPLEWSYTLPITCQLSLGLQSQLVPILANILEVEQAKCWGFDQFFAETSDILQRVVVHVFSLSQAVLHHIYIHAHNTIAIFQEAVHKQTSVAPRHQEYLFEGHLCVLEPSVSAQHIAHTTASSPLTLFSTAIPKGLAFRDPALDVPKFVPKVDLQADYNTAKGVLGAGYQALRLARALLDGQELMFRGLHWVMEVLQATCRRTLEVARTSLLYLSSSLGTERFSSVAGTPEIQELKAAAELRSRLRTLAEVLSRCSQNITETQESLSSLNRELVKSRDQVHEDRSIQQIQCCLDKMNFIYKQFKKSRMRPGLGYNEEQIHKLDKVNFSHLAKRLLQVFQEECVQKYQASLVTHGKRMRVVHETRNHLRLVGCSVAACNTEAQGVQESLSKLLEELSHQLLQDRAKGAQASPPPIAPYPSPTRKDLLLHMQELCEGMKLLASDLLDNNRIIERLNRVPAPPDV

CAMKK2 (human) = CAMKK2 (human) (UniProt Q96RR4)
MLTK (human) = MLTK (human) (UniProt Q9NYL2)
PI4KB (human) = PI4KB (human) (UniProt Q9UBF8)
PRKD1 (human) = PRKD1 (human) (UniProt Q15139)
RPS6KA4 KD2 (human) = RPS6KA4 KD2 (human) (UniProt O75676)
MAP3K12 (human) = MAP3K12 (human) (UniProt Q12852)
PAK2 (human) = PAK2 (human) (UniProt Q13177)
Sequence of PAK2 (human) (Q13177 whole entry, looked up): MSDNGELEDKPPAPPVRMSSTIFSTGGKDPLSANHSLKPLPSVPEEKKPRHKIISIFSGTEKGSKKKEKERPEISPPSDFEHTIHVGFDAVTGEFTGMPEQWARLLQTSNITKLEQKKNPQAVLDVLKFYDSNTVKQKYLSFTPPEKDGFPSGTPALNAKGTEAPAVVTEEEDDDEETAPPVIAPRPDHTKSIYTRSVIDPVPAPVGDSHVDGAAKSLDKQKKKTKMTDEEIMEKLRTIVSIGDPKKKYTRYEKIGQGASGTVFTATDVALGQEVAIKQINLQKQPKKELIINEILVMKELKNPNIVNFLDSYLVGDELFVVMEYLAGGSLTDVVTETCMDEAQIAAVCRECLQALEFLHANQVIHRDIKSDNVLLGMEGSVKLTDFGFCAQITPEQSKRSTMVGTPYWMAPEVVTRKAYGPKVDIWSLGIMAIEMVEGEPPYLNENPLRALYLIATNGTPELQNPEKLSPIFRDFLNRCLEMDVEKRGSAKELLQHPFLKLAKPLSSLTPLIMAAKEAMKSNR

CAMK1G (human) = CAMK1G (human) (UniProt Q96NX5)
CLK4 (human) = CLK4 (human) (UniProt Q9HAZ1)
NEK4 (human) = NEK4 (human) (UniProt P51957)

Row | Compound | kinase still bound, per cent of control (ACVR1 (human)) [%] | kinase still bound, per cent of control (STK4 (human)) [%] | kinase still bound, per cent of control (CDKL2 (human)) [%] | kinase still bound, per cent of control (HCK (human)) [%] | kinase still bound, per cent of control (PAK3 (human)) [%] | kinase still bound, per cent of control (MAP4K2 (human)) [%] | kinase still bound, per cent of control [1] [%] | kinase still bound, per cent of control (PRKACB (human)) [%] | kinase still bound, per cent of control (STK33 (human)) [%] | kinase still bound, per cent of control (STK24 (human)) [%] | kinase still bound, per cent of control [2] [%] | kinase still bound, per cent of control (LTK (human)) [%] | kinase still bound, per cent of control (ACVR2B (human)) [%] | kinase still bound, per cent of control (ERBB4 (human)) [%] | kinase still bound, per cent of control (MAPK13 (human)) [%] | kinase still bound, per cent of control (PAK6 (human)) [%] | kinase still bound, per cent of control (RIPK1 (human)) [%] | kinase still bound, per cent of control (MAP3K10 (human)) [%] | kinase still bound, per cent of control (RPS6KA1 KD1 (human)) [%] | kinase still bound, per cent of control (MAPK9 (human)) [%] | other results
1 | CS(=O)(=O)N1CCN(Cc2cc3nc(-c4cccc5[nH]ncc45)nc(N4CCOCC4)c3s2)CC1 | 100 | 100 | 100 | 100 | 100 | 100 | 100 | 100 | 100 | 100 | 100 | 100 | 100 | 100 | 100 | 100 | 100 | 100 | 100 | 100 | kinase still bound, per cent of control (CSNK1D (human)): 100%; kinase still bound, per cent of control (CDKL3 (human)): 100%; kinase still bound, per cent of control (CHEK2 (human)): 100%; kinase still bound, per cent of control (ZAP70 (human)): 100%; kinase still bound, per cent of control (MARK3 (human)): 100%; kinase still bound, per cent of control (MAP4K4 (human)): 100%; kinase still bound, per cent of control (IRAK3 (human)): 100%; kinase still bound, per cent of control (EPHB2 (human)): 100%; kinase still bound, per cent of control (IKBKE (human)): 100%; kinase still bound, per cent of control (CAMKK2 (human)): 100%; kinase still bound, per cent of control (MLTK (human)): 100%; kinase still bound, per cent of control (PI4KB (human)): 100%; kinase still bound, per cent of control (PRKD1 (human)): 100%; kinase still bound, per cent of control (RPS6KA4 KD2 (human)): 100%; kinase still bound, per cent of control (MAP3K12 (human)): 100%; kinase still bound, per cent of control (PAK2 (human)): 100%
2 | N#CCNC(=O)c1ccc(-c2ccnc(Nc3ccc(N4CCOCC4)cc3)n2)cc1 | 0.95 | 100 | 69 | 100 | 73 | 40 | 0.25 | 36 | 98 | 64 | 100 | 100 | 54 | 100 | 100 | 100 | 63 | 62 | 100 | 26 | kinase still bound, per cent of control (CAMK1G (human)): 30%; kinase still bound, per cent of control (CLK4 (human)): 15%; kinase still bound, per cent of control (NEK4 (human)): 100%; kinase still bound, per cent of control (CSNK1D (human)): 100%; kinase still bound, per cent of control (CDKL3 (human)): 60%; kinase still bound, per cent of control (CHEK2 (human)): 100%; kinase still bound, per cent of control (ZAP70 (human)): 91%; kinase still bound, per cent of control (MARK3 (human)): 16%; kinase still bound, per cent of control (MAP4K4 (human)): 85%; kinase still bound, per cent of control (IRAK3 (human)): 22%; kinase still bound, per cent of control (EPHB2 (human)): 100%; kinase still bound, per cent of control (IKBKE (human)): 5.2%; kinase still bound, per cent of control (CAMKK2 (human)): 51%; kinase still bound, per cent of control (MLTK (human)): 100%; kinase still bound, per cent of control (PI4KB (human)): 17%; kinase still bound, per cent of control (PRKD1 (human)): 22%; kinase still bound, per cent of control (RPS6KA4 KD2 (human)): 100%; kinase still bound, per cent of control (MAP3K12 (human)): 100%; kinase still bound, per cent of control (PAK2 (human)): 100%
3 | COc1cc(N2CCN(C)CC2)ccc1Nc1ncc2c(n1)N(C)c1ccccc1C(=O)N2C | 100 | 100 | 100 | 100 | 100 | 100 | 100 | 100 | 8.8 | 100 | 100 | 100 | 100 | 100 | 100 | 100 | 100 | 100 | 100 | 100 | kinase still bound, per cent of control (CAMK1G (human)): 100%; kinase still bound, per cent of control (CLK4 (human)): 100%; kinase still bound, per cent of control (CSNK1D (human)): 100%; kinase still bound, per cent of control (CDKL3 (human)): 100%; kinase still bound, per cent of control (CHEK2 (human)): 30%; kinase still bound, per cent of control (ZAP70 (human)): 100%; kinase still bound, per cent of control (MARK3 (human)): 100%; kinase still bound, per cent of control (MAP4K4 (human)): 100%; kinase still bound, per cent of control (IRAK3 (human)): 100%; kinase still bound, per cent of control (EPHB2 (human)): 100%; kinase still bound, per cent of control (IKBKE (human)): 100%; kinase still bound, per cent of control (CAMKK2 (human)): 15%; kinase still bound, per cent of control (MLTK (human)): 100%; kinase still bound, per cent of control (PI4KB (human)): 100%; kinase still bound, per cent of control (PRKD1 (human)): 3.8%; kinase still bound, per cent of control (RPS6KA4 KD2 (human)): 100%; kinase still bound, per cent of control (MAP3K12 (human)): 100%; kinase still bound, per cent of control (PAK2 (human)): 100%
4 | CCN(CC)CCCCNc1ncc2c(n1)N(C)C(=O)N(c1c(Cl)c(OC)cc(OC)c1Cl)C2 | 100 | 100 | 100 | 100 | 100 | 100 | 100 | 100 | 100 | 13 | 100 | 100 | 100 | 100 | 100 | 100 | 100 | 100 | 100 | 100 | kinase still bound, per cent of control (CAMK1G (human)): 100%; kinase still bound, per cent of control (CLK4 (human)): 100%; kinase still bound, per cent of control (CSNK1D (human)): 100%; kinase still bound, per cent of control (CDKL3 (human)): 100%; kinase still bound, per cent of control (CHEK2 (human)): 100%; kinase still bound, per cent of control (ZAP70 (human)): 100%; kinase still bound, per cent of control (MARK3 (human)): 100%; kinase still bound, per cent of control (MAP4K4 (human)): 100%; kinase still bound, per cent of control (IRAK3 (human)): 100%; kinase still bound, per cent of control (EPHB2 (human)): 100%; kinase still bound, per cent of control (IKBKE (human)): 100%; kinase still bound, per cent of control (CAMKK2 (human)): 100%; kinase still bound, per cent of control (MLTK (human)): 100%; kinase still bound, per cent of control (PI4KB (human)): 100%; kinase still bound, per cent of control (PRKD1 (human)): 100%; kinase still bound, per cent of control (RPS6KA4 KD2 (human)): 100%; kinase still bound, per cent of control (MAP3K12 (human)): 100%; kinase still bound, per cent of control (PAK2 (human)): 100%
